This is an account of results in US9140688B2, “Sperm staining and sorting methods” (INGURAN, LLC, priority 2011, dated 2015).

Holding throughout (assay type): cell-based
The subject of assay [1] is bovine sperm. In words: Post thaw motility of sex sorted, frozen-thawed bovine sperm (Example 1). The conditions noted are these: average over all bulls, Red with 16-17 μl, Yellow with 14-15 μl Hoechst 33342 per 2 ml; for Post thaw motility, average 0 Hour: dye 20 g/L in second TALP. The procedure:
(§1) Sperm was collected from 10 different bulls on a routine collection schedule using an artificial vagina over the course of 4 days. The 10 bulls included both Jersey bulls and Holstein bulls. All ejaculates contained greater than 60% progressive motility and greater than 70% morphological normal sperm. Antibiotics were added within 15 minutes of collection.
(§2) Red food dye treatment 40% —A reduced volume of red food dye No. 40 control was established. Sperm was diluted to 160×10^6 sperm per ml in a modified TALP buffer, as described in Table 1, at a pH of 7.4. Samples collected from Jersey bulls were incubated with 16 μl of Hoechst 33342 per 2 ml of sample for between 45 and 60 minutes at 34° C., while samples collected from Holstein bulls were incubated 17 μl of Hoechst 33342 per 2 ml of sample for between 45 and 60 minutes at 34° C. After incubation an equal volume of a second modified TALP was added reducing the concentration to 80×10^6. The second modified TALP includes the components described in Table 1 with the addition of 4% egg yolk, 40 μM red food dye No. 40 (20 g/L) and the pH dropped to 5.5 with HCl.
Yellow Food dye treatment—Yellow food dye was included in a second group at an equal concentration. Sperm was diluted to 160×10^6 sperm per ml in a modified TALP buffer, as described in Table 1, at a pH of 7.4. Samples collected from Jersey bulls were incubated with 14 μl of Hoechst 33342 per 2 ml of sample for between 45 and 60 minutes at 34° C., while sample collected from Holstein bulls were incubated 15 μl of Hoechst 33342 per 2 ml of sample for between 45 and 60 minutes at 34° C. After incubation an equal volume of a second modified TALP was added reducing the concentration to 80×10^6. The second modified TALP includes the components described in Table 1 with the addition 4% egg yolk, 20 g/L yellow food dye No. 6 and a pH dropped to 5.5 with HCl.
Just prior to sorting, each sample was filtered though a 40 μm nylon mesh. Each sample was sorted with an MoFlo SX XDP (Beckman Coulter, Inc., CA USA) operating at 40 psi. A tris-citrate-fructose sheath fluid was used comprising Tris(hydroxymethyl)aminomethane (Sigma Chemical Co, St. Louis, Mo., USA) citric acid monohydrate (Sigma Chemical Co, St. Louis, Mo., USA) and fructose (Sigma Chemical Co, St. Louis, Mo., USA). Antibiotics were additionally added to the sheath fluid.
Unquenched sperm having the desired sex characteristics were collected into a single tube with a tris-egg yolk catch fluid and the remaining sperm was removed with waste. […]
(§3) Straws were thawed the following day for motility measurements at 0 hour and 3 hours. Percent intact acrosomes were measured as well, and the overall averages over all bulls on each day are illustrated in Table 3. […]

Assay [2] relates to bovine sperm. In words: Post thaw percent intact acrosomes (PIA) of sex sorted bovine sperm (Example 1). The conditions noted are these: average over all bulls. The procedure: as §1
as §2, with “HCl. […]” for “HCl.”
as §3

For the next assay, the system named is elk sperm. Put plainly: Post thaw motility of bulk sorted elk sperm (Example 3). As to conditions: 0 HR; RED TALP with 16 μL, Y6 with 14 μL Hoechst 33342. On the procedure: (§4) Each of deer and elk were collected in the Tris-egg yolk catch fluid described as a catch media in Example 1, and shipped for sorting.
(§5) A portion of each of the deer and the elk were stained by the red food dye No. 40 treatment 40% with 16 μL Hoechst 33342 and the yellow food dye No. 6 treatment with 14 μL Hoechst 33342 as described in Example 1.
(§6) Samples were each bulk sorted with the same machine and parameters described in Example 1. Both sorted X and sorted Y sperm were collected into a single catch. The sorted samples were then frozen like those described in Example 1.
(§7) Frozen thawed samples were then tested for post thaw motilities and post thaw DNA fragmentation. Post thaw motilities were slightly higher in Elk sorted with a yellow quencher, while a more significant difference existed in progressive motility. In Table 10, post thaw DNA fragmentation in Elk can be seen at about double after 48 hours when red food dye No. 40 is compared to yellow food dye No. 6 as a dead quencher.

A further assay deals with deer sperm. Put plainly: Post thaw motility of bulk sorted deer sperm (Example 3). As to conditions: 0 HR; RED TALP with 16 μL, Y6 with 14 μL Hoechst 33342. On the procedure:
as §4, §5, §6, §7

The next assay concerns canine sperm. In words: Post thaw motility of sex sorted canine sperm on CASA (Example 4). As to conditions: for Motile, average / Progressive, average: 0 Hr post thaw. The procedure: Sperm was collected from a single canine at room temperature into CaniPro Chill 5, available from Minitube, Wis., USA, then centrifuged into a pellet and resuspended in a Tris buffer at a pH of 6.8.
Samples were extended to 40×10^6 sperm/ml in 1 ml volumes with the Tris buffer described in Example 1 but set to a pH of 7.2. Ten samples were then stained 4, 4, 5, 5, 7, 8, 8, 9, 9, and 10 μL of Hoechst 33342 and quenched with one of two quenching dyes at a concentration of 50 μM in a second buffer Tris buffer.
Red food dye No. 40 quencher—1 ml Tris at a pH 6.3 was added with red food dye No. 40 into samples stained with 4, 5, 8, 9, 10 μL Hoechst 33342. The red food dye No. 40 was added at a concentration of about 50 μM.
Yellow food dye No. 6 quencher—1 ml Tris at a pH 6.3 was added with yellow food dye No. 6 into samples stained with 4, 5, 7, 8, 9 μL Hoechst 33342. The yellow food dye No. 6 was added at the same concentration as the red food dye No. 40 quencher, at about 50 μM.
5 million cells were sex sorted with a MoFlo SX XPD into 50 mL Falcon tubes having 3.5 mL of a Tris-egg yolk catch fluid, described in Example 1 for both X and Y populations. Two samples were sorted, the red food dye No. 40 quenched treatment with 9 μL Hoechst 33342 and the yellow food dye […] quenched treatment with 7 μL Hoechst 33342.
Straws were then frozen and stored in liquid nitrogen.
Straws were thawed for 30 sec in a 38° C. water bath and their motilities were examined on CASA.
Table 12 illustrates the average motilities and progressive motilities for the sorted treatments. Canine sperm quenched with yellow food dye No. 6 provided about 4.5% more motile sperm in the X population and 6.5% more motile sperm in the Y population. Similarly, the yellow quenched dye provided 7% better progressive motility in the X population and 8% better progressive motility in the Y population.

Turning to `O=S(=O)([O-])c1ccc(N=Nc2c(O)ccc3cc(S(=O)(=O)[O-])ccc23)cc1.[Na+].[Na+]` [Yellow 6, Disodium 6-hydroxy-5-[(4-sulfophenyl)azo]-2-naphthalenesulfononate], in the assay with bovine sperm [1], the “Post thaw motility, average 3 Hour” value is 49.0% and the “Post thaw motility, average 0 Hour” value amounted to 57.7%. Besides, in the assay on bovine sperm [2], the “Average PIA (percent intact acrosomes)” value was found to be 71.3%. For the same compound, in the assay on elk sperm, the “Post Thaw Motility Elk, Motile” value is on record as 55.5 and the “Post Thaw Motility Elk, Progressive” value came to 38.0. In the assay with deer sperm, the “Post Thaw Motility Deer, Motile” value was 67.5 and the “Post Thaw Motility Deer, Progressive” value is listed as 53.2. Also, in the assay with canine sperm (X population), the “better progressive motility than with red quencher” value was determined as 7%; the “more motile sperm than with red quencher” value was “about 4.5%”; the “Motile, average” value turned out to be 24; the “Progressive, average” value was determined as 18.5. Moreover, in the assay with canine sperm (Y population), the “better progressive motility than with red quencher” value was determined as 8%; the “more motile sperm than with red quencher” value came out at 6.5%; the “Motile, average” value is recorded as 25; the “Progressive, average” value is reported as 21.
As for `COc1cc(S(=O)(=O)O)c(C)cc1N=Nc1c(O)ccc2cc(S(=O)(=O)O)ccc12` [Red 40, 6-hydroxy-5-[(2-methoxy-5-methyl-4-sulfophenyl)azo]-2-naphthalenesulfonic acid, reference compound], in the assay on bovine sperm [1], the “Post thaw motility, average 3 Hour” value stood at 47.0% and the “Post thaw motility, average 0 Hour” value stood at 56.6%. Besides, the “Average PIA (percent intact acrosomes)” value in the assay with bovine sperm [2] is 70.8%. Besides, in the assay on elk sperm, the “Post Thaw Motility Elk, Motile” value came to 51.0 and the “Post Thaw Motility Elk, Progressive” value is 29.0. Also, in the assay with deer sperm, the “Post Thaw Motility Deer, Motile” value stood at 59.8 and the “Post Thaw Motility Deer, Progressive” value amounted to 43.0. Also, in the assay with canine sperm (X population), the “Motile, average” value is listed as 19.5 and the “Progressive, average” value is given as 11.5. Also, in the assay on canine sperm (Y population), the “Motile, average” value amounted to 18.5 and the “Progressive, average” value worked out at 13.
